According to a compilation of properties of binary mixtures (doi:10.1016/j.molliq.2016.07.039):

Assay: xn = mol fraction of the nth substance listed
Settings: 101 kPa

## CC[N+](CC)(CC)CC.[Cl-] + CC(=O)CCC(=O)O
293.15 K, x1 = 0.25
  electrical conductivity: 0.075 S/m
  viscosity: 130.1 mPa·s
298.15 K, x1 = 0.25
  electrical conductivity: 0.105 S/m
303.15 K, x1 = 0.25
  electrical conductivity: 0.138 S/m
  viscosity: 69.8 mPa·s
308.15 K, x1 = 0.25
  electrical conductivity: 0.172 S/m
313.15 K, x1 = 0.25
  electrical conductivity: 0.215 S/m
  viscosity: 39.1 mPa·s
318.15 K, x1 = 0.25
  electrical conductivity: 0.265 S/m
323.15 K, x1 = 0.25
  electrical conductivity: 0.318 S/m
  viscosity: 27.1 mPa·s
328.15 K, x1 = 0.25
  electrical conductivity: 0.373 S/m
333.15 K, x1 = 0.25
  electrical conductivity: 0.453 S/m
  viscosity: 18.71 mPa·s
338.15 K, x1 = 0.25
  electrical conductivity: 0.524 S/m
343.15 K, x1 = 0.25
  electrical conductivity: 0.587 S/m

## CC(=O)CCC(=O)O + CCCC[N+](CCCC)(CCCC)CCCC.[Cl-]
293.15 K, x1 = 0.75
  electrical conductivity: 0.035 S/m
  viscosity: 121.7 mPa·s
298.15 K, x1 = 0.75
  electrical conductivity: 0.045 S/m
303.15 K, x1 = 0.75
  electrical conductivity: 0.06 S/m
  viscosity: 65.6 mPa·s
308.15 K, x1 = 0.75
  electrical conductivity: 0.072 S/m
313.15 K, x1 = 0.75
  electrical conductivity: 0.089 S/m
  viscosity: 36.7 mPa·s
318.15 K, x1 = 0.75
  electrical conductivity: 0.113 S/m
323.15 K, x1 = 0.75
  electrical conductivity: 0.129 S/m
  viscosity: 25.5 mPa·s
328.15 K, x1 = 0.75
  electrical conductivity: 0.151 S/m
338.15 K, x1 = 0.75
  electrical conductivity: 0.213 S/m
